Experimental data taken from ChEMBL document CHEMBL1201862, “PubChem BioAssay data set” (2004).
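Cells were grown in 96-well plates and exposed to each compound for 48 hours at five concentrations; endpoints were interpolated linearly between bracketing concentrations, or set to the highest concentration if not reached. At the GI50, growth is halved.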 Active and inactive are the calls of the source. No stated cut-off is given here; in the data, active = GI50 up to about 1.1 µM and inactive = higher. Where a SMILES comes first, the peptide text is derived from it. The star is where a group is joined. Fmoc = O=C(OCC1c2ccccc2-c2ccccc21)*; OtBu = CC(C)(C)O*

Assays:
Test in all cases: DTP human tumour cell line panel, 48 h
A498 = test system: A498
SN12C = test system: SN12C
UACC-257 = test system: UACC-257
A549 = test system: A549
LOX IMVI = test system: LOX IMVI
NCI-H460 = test system: NCI-H460
ACHN = test system: ACHN
CCRF-CEM = test system: CCRF-CEM
HL-60 = test system: HL-60
KM12 = test system: KM12
RXF 393 = test system: RXF 393
UO-31 = test system: UO-31
MOLT-4 = test system: MOLT-4
HOP-62 = test system: HOP-62
U-251 = test system: U-251
HCT-116 = test system: HCT-116
SK-MEL-28 = test system: SK-MEL-28
NCI-H23 = test system: NCI-H23
RPMI-8226 = test system: RPMI-8226
SF-268 = test system: SF-268

Measured: GI50

CCN1CCCCC(=N\O)/C(=N/O)CCCC1
inactive: A498 > 100 µM | SN12C > 100 µM | UACC-257 > 100 µM | A549 > 100 µM | LOX IMVI > 100 µM | NCI-H460 > 100 µM | ACHN > 100 µM | CCRF-CEM > 100 µM | HL-60 > 100 µM | KM12 > 100 µM | RXF 393 > 100 µM | UO-31 > 100 µM | MOLT-4 > 100 µM | HOP-62 > 100 µM | U-251 > 100 µM | HCT-116 > 100 µM | SK-MEL-28 > 100 µM | NCI-H23 > 100 µM | RPMI-8226 > 100 µM | SF-268 > 100 µM

OCC1C2C=CC(O2)[C@H]1CO (stereo partly drawn)
inactive: A498 > 100 µM | SN12C > 100 µM | UACC-257 > 100 µM | A549 > 100 µM | LOX IMVI > 100 µM | NCI-H460 > 100 µM | ACHN > 100 µM | CCRF-CEM 78.7 µM | HL-60 > 100 µM | KM12 > 100 µM | RXF 393 42.4 µM | UO-31 > 100 µM | MOLT-4 > 100 µM | HOP-62 > 100 µM | U-251 > 100 µM | HCT-116 > 100 µM | SK-MEL-28 > 100 µM | RPMI-8226 > 100 µM | SF-268 > 100 µM

N#C[C@@H](c1nc2ccccc2s1)c1ncccc1[N+](=O)[O-]
inactive: A498 10.8 µM | SN12C 4.82 µM | UACC-257 2.12 µM | A549 4.4 µM | LOX IMVI 4.97 µM | NCI-H460 5.62 µM | ACHN 6.07 µM | CCRF-CEM > 10 µM | HL-60 > 10 µM | KM12 10.6 µM | RXF 393 5.87 µM | UO-31 3.99 µM | MOLT-4 9.12 µM | HOP-62 10.4 µM | U-251 3.48 µM | HCT-116 5.6 µM | SK-MEL-28 > 10 µM | NCI-H23 3.7 µM | RPMI-8226 4.9 µM | SF-268 8.11 µM

O=C(O)c1ccc(Nc2nc3ccccc3nc2-c2cccs2)cc1
inactive: A498 47 µM | SN12C > 100 µM | UACC-257 > 100 µM | A549 44.2 µM | LOX IMVI 35.1 µM | NCI-H460 71 µM | ACHN 98.9 µM | CCRF-CEM > 100 µM | HL-60 > 100 µM | KM12 64.1 µM | RXF 393 39.4 µM | UO-31 63.5 µM | MOLT-4 > 100 µM | HOP-62 > 100 µM | U-251 95.9 µM | HCT-116 94 µM | SK-MEL-28 > 100 µM | NCI-H23 > 100 µM | RPMI-8226 68.1 µM | SF-268 82.2 µM

COC(=O)C(=O)C(C(=O)Nc1cccc(C)c1C)C1Sc2ccccc2NC1=O (stereo not drawn)
inactive: A498 11.5 µM | SN12C > 25 µM | UACC-257 16.4 µM | A549 10.9 µM | LOX IMVI 13.9 µM | NCI-H460 13.4 µM | ACHN > 25 µM | CCRF-CEM > 25 µM | HL-60 4.89 µM | KM12 7.69 µM | RXF 393 7.55 µM | UO-31 > 25 µM | MOLT-4 > 25 µM | HOP-62 19.6 µM | U-251 12.3 µM | HCT-116 8.22 µM | SK-MEL-28 14.6 µM | NCI-H23 > 25 µM | RPMI-8226 9.48 µM | SF-268 17.6 µM

CC(C)C(=O)N1C(=O)O[C@@H](c2ccccc2)[C@H]1C
inactive: A498 > 100 µM | SN12C > 100 µM | UACC-257 > 100 µM | A549 > 100 µM | LOX IMVI > 100 µM | NCI-H460 > 100 µM | ACHN > 100 µM | CCRF-CEM > 100 µM | HL-60 > 100 µM | KM12 > 100 µM | RXF 393 > 84.1 µM | UO-31 > 100 µM | MOLT-4 > 100 µM | HOP-62 > 100 µM | U-251 > 100 µM | HCT-116 > 100 µM | SK-MEL-28 > 100 µM | NCI-H23 > 100 µM | RPMI-8226 > 100 µM | SF-268 > 100 µM

CC(C)C(NC(=O)OCC1c2ccccc2-c2ccccc21)C(=O)NC(CCC(=O)OC(C)(C)C)C(=O)OC(C)(C)C (stereo not drawn) (Fmoc-Val-Glu(OtBu)-OtBu; configuration not given here)
inactive: A498 58.5 µM | SN12C > 31.6 µM | UACC-257 > 100 µM | A549 60 µM | LOX IMVI 8.38 µM | NCI-H460 21.2 µM | ACHN > 100 µM | CCRF-CEM > 100 µM | HL-60 4.14 µM | KM12 > 29.2 µM | RXF 393 > 20 µM | UO-31 > 56.2 µM | MOLT-4 4.21 µM | HOP-62 > 93.1 µM | U-251 7.59 µM | HCT-116 4.42 µM | SK-MEL-28 > 100 µM | NCI-H23 14.9 µM | RPMI-8226 2.92 µM | SF-268 > 87.3 µM

O=C(Nc1ccc(F)cc1)C(=O)C(C(=O)c1ccccc1F)C1OC(=O)c2ccccc21 (stereo not drawn)
inactive: A498 > 100 µM | SN12C 51.2 µM | UACC-257 > 100 µM | A549 > 100 µM | LOX IMVI 35.6 µM | NCI-H460 47 µM | ACHN > 100 µM | CCRF-CEM 17.6 µM | HL-60 29.8 µM | KM12 79.4 µM | RXF 393 > 100 µM | UO-31 52.6 µM | MOLT-4 14.9 µM | HOP-62 > 100 µM | U-251 24 µM | HCT-116 45.8 µM | SK-MEL-28 87.3 µM | NCI-H23 > 100 µM | RPMI-8226 23.4 µM | SF-268 50 µM

N#CC(C#N)C1CN2CCC1CC2 (stereo not drawn)
inactive: A498 > 100 µM | SN12C > 100 µM | UACC-257 > 100 µM | A549 > 100 µM | LOX IMVI > 100 µM | NCI-H460 > 100 µM | ACHN > 100 µM | CCRF-CEM > 100 µM | HL-60 > 100 µM | KM12 > 100 µM | RXF 393 90.4 µM | UO-31 > 100 µM | MOLT-4 > 100 µM | HOP-62 > 100 µM | U-251 > 100 µM | HCT-116 > 100 µM | SK-MEL-28 > 100 µM | NCI-H23 > 100 µM | RPMI-8226 > 100 µM | SF-268 > 100 µM

COCC1N=C(c2cc(OC)c(OC)c(OC)c2-c2cc3c(cc2[C@@H](C)O)OCO3)O[C@H]1c1ccccc1 (stereo partly drawn)
inactive: A498 > 94.4 µM | SN12C 52.1 µM | UACC-257 > 100 µM | A549 > 57.3 µM | LOX IMVI > 100 µM | NCI-H460 > 71.8 µM | CCRF-CEM > 100 µM | HL-60 > 100 µM | KM12 > 100 µM | RXF 393 33.7 µM | UO-31 > 100 µM | MOLT-4 > 100 µM | HOP-62 86.3 µM | U-251 53.2 µM | HCT-116 > 100 µM | SK-MEL-28 > 68.4 µM | NCI-H23 51.6 µM | RPMI-8226 97.5 µM | SF-268 > 66.2 µM

COc1cc(/C=C(\C)[N+](=O)[O-])cc(OC)c1
inactive: A498 8.05 µM | SN12C 17.1 µM | UACC-257 15.5 µM | A549 28.3 µM | LOX IMVI 3.08 µM | NCI-H460 20.2 µM | ACHN 16.4 µM | CCRF-CEM 2.4 µM | HL-60 2.04 µM | KM12 19.3 µM | RXF 393 7.48 µM | UO-31 15.6 µM | MOLT-4 2.57 µM | HOP-62 19.2 µM | U-251 17.7 µM | HCT-116 16.1 µM | SK-MEL-28 18.4 µM | NCI-H23 19.1 µM | RPMI-8226 3.12 µM | SF-268 19.3 µM
